Data reported in patent publication US6623933B1 (priority 1999, dated 2003).
“Also recorded” adds a separate entry of the source. Where a name gives a salt, the structure may show the parent alone. Read-outs that look alike come from different tables or passages of the source.

Key:
[1] = system: primary cultures of rat hippocampal neurons; assay: NMDA-induced increase in [Ca2+]i, Fluo-3 AM; format: cell-based; conditions: for reduction of NMDA-induced rise in [Ca2+]i: steroid 100 μM (3α5β 50 μM)
Experimental: (§1) Principally neuronal cultures were prepared from hippocampal tissue of fetal Sprague-Dawley rats on day 18 of embryonic development, as previously described (Brewer et al., Brain Research 494: 65-74 (1989)). Briefly, hippocampal cells were dissociated by trituration in Ca^2+/Mg^2+-free Hank's basic salt solution (Gibco) supplemented with 4.2 mM bicarbonate, 1 mM sodium pyruvate, 20 mM HEPES, 3 mg/ml bovine serum albumin (BSA). Dissociated cells were then pelleted by centrifugation (500×g, 4 min). […] Cells were then plated onto poly-L-lysine-coated 24-well culture dishes (Nunclon) at a density of 15,000 cell/cm^2 and maintained in a humidified atmosphere containing 5% CO2/95% air at 37° C. After 48 h, nonneuronal cell division was inhibited by a 48 h exposure to 1 μM cytosine arabinoside. Cultures were subsequently maintained in serum-free DMEM plus defined components and were used for experiments 16 to 24 days after plating.
DMSO was also added to controls to maintain a constant final DMSO concentration of […].
(§2) All data are expressed as mean±standard error of the mean. Statistical significance was evaluated using 95% confidence limits unless otherwise noted.

[2] = target: T1, NR1100+NR2A NMDA receptor (Rattus norvegicus, UniProt P35439+Q00959); assay: NMDA-induced current (INMDA), Xenopus oocytes, Example 2; format: cell-based; conditions: 100 μM NMDA, 100 μM steroid
T1 construct: expressed in transfected cells; host or cells: Xenopus oocytes co-injected with NR1100 and NR2A cRNA
T1 sequence (Q00959 23-1464, other chains not shown): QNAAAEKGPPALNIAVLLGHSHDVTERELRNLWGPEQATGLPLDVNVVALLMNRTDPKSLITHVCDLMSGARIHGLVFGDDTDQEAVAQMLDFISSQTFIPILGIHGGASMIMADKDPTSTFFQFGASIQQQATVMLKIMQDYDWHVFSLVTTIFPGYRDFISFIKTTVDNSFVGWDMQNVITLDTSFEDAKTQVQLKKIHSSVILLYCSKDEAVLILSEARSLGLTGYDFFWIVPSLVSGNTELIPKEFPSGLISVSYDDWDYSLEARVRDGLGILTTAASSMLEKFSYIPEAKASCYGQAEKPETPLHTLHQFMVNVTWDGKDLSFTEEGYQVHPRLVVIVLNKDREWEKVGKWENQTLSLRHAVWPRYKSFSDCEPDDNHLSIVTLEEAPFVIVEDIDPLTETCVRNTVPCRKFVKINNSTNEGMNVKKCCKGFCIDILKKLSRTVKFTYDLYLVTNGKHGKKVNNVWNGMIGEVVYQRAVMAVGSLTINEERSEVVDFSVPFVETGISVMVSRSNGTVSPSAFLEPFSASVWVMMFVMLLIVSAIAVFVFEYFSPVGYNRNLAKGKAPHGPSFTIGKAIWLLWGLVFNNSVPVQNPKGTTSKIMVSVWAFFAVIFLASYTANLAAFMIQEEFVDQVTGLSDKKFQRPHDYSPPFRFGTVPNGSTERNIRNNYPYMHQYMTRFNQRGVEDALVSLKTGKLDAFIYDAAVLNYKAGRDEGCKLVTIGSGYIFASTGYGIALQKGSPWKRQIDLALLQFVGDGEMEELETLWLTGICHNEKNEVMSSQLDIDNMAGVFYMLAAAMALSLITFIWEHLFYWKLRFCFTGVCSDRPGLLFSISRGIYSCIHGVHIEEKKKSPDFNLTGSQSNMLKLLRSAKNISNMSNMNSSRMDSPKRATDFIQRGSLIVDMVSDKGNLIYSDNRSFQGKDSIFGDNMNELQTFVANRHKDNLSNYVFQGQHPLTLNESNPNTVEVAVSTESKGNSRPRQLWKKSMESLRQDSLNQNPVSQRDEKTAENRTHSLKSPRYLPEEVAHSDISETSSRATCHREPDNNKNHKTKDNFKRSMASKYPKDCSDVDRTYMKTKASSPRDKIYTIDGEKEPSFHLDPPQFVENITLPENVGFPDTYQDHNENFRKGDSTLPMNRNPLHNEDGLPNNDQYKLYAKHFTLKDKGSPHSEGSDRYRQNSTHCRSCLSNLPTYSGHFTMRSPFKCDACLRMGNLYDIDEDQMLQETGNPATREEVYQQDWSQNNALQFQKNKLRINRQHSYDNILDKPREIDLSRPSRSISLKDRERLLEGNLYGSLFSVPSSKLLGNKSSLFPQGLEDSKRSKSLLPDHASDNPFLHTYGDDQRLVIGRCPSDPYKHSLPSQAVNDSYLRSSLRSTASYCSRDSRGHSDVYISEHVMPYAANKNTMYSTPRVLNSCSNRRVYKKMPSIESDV
Experimental: NR1100 (NR1G) and NR2A clones were kindly provided by Dr. R. S. Zukin (Albert Einstein College of Medicine, New York, N.Y.) and Dr. S. Nakanishi (Faculty of Medicine, Kyoto University, Kyoto, Japan), respectively. mRNA was prepared through in vitro transcription of NR1100 and NR2A cDNAs using the mMessage mMachine kit (Ambion, Tex.). On the day following isolation, batches of 20-40 selected Xenopus oocytes were injected with 50 nl of prepared RNA solution (0.5 ng NR1100 and 5 ng of NR2A mRNA/oocyte). Oocytes were maintained in glass petri dishes containing Barth's solution (84 mM NaCl, 1 mM KCl, 2.4 mM NaHCO3, 0.82 mM MgSO4, 0.41 mM CaCl2, 0.33 mM Ca(NO3)2, 2.5 mM pyruvate, 0.1 mg/ml gentamycin, 7.5 mM Tris/HCl, pH 7.4) in an incubator at 18° C. Oocytes were used for electrophysiological experiments 4-10 days after injection.
Recordings from oocytes were obtained using the two electrode voltage-clamp mode with an Axoclamp-2A amplifier (Axon Instruments). The resistance of microelectrodes, pulled from glass capillaries and filled with 3 M KCl solution, was 2.5-3.5 M. Membrane potential was clamped at −70 mV. Drugs were applied by a gravity-driven external perfusion system. Drug application and data acquisition were carried out with custom-written software implemented in the SuperScopeII programming language (GW Instruments, Somerville, Mass.).
The degree of modulation of NMDA-induced Ca^2+ influx, cell death, and currents is expressed as the percent change, defined as (I′/I−1)×100%, where I and I′ are the NMDA-induced responses in the absence and presence of modulator, respectively. All data are expressed as mean±standard error of the mean. Statistical significance was evaluated using 95% confidence limits unless otherwise noted.

[3] = system: primary cultures of rat hippocampal neurons; assay: NMDA-induced neuronal death, trypan blue exclusion; format: cell-based; conditions: for inhibition of NMDA-induced neuronal death: acute 30 μM NMDA, steroid 100 μM (3α5β 50 μM); for exacerbation of NMDA-induced neuronal death: acute NMDA, steroid 100 μM (pregnenolone 20 μM)
Experimental: as §1
(§3) Steroids were dissolved in DMSO (0.5% final concentration), and all treatment media contained 0.5% DMSO. […] Following exposure, cultures were washed 3 times with medium from sister cultures (conditioned medium). After the final wash, steroid or vehicle was reintroduced. Drugs were added to cultures in 25 μl of conditioned medium to yield a final volume of 0.25 ml per well. Except where otherwise noted, final steroid concentration was 100 μM.
The ability of neurons to exclude trypan blue was used to quantitate cell viability (Dawson et al., Proc Natl Acad Sci USA 88: 6368-6371 (1991)). […] Cultures were then fixed with 4% paraformaldehyde in PBS for 30 min, at whichtime the fixative was replaced with PBS. The number of stained and unstained neurons were counted in 4 high-power fields per culture well, using an inverted phase contrast microscope under both bright field and phase contrast settings. Experiments were performed in triplicate, and all assessments were made with the experimenter blind to the treatment of each culture well. Percent cell death is expressed as follows: (number of trypan blue stained neurons)/(total number of neurons)×100%.
as §2

[4] = Precipitation in assay buffer / culture medium; format: physicochemical; conditions: 0.5% DMSO, above 50 μM (3α5β) and 20 μM (pregnenolone)
Experimental: Steroids were initially dissolved in 100% DMSO, then diluted into assay buffer at a final DMSO concentration of 0.5% and sonicated for 20 min. All other solutions also contained 0.5% DMSO. Except where otherwise noted, the final steroid concentration was 100 μM.
as §3

GluR6 kainate receptor = target: T2, GluR6 kainate receptor (Rattus norvegicus, UniProt P42260); assay: Kainate-induced currents, Xenopus oocytes injected with GluR6 cRNA; format: cell-based
T2 construct: expressed in transfected cells; host or cells: Xenopus oocytes injected with GluR6 cRNA (concanavalin A treated)
T2 sequence (P42260 32-908): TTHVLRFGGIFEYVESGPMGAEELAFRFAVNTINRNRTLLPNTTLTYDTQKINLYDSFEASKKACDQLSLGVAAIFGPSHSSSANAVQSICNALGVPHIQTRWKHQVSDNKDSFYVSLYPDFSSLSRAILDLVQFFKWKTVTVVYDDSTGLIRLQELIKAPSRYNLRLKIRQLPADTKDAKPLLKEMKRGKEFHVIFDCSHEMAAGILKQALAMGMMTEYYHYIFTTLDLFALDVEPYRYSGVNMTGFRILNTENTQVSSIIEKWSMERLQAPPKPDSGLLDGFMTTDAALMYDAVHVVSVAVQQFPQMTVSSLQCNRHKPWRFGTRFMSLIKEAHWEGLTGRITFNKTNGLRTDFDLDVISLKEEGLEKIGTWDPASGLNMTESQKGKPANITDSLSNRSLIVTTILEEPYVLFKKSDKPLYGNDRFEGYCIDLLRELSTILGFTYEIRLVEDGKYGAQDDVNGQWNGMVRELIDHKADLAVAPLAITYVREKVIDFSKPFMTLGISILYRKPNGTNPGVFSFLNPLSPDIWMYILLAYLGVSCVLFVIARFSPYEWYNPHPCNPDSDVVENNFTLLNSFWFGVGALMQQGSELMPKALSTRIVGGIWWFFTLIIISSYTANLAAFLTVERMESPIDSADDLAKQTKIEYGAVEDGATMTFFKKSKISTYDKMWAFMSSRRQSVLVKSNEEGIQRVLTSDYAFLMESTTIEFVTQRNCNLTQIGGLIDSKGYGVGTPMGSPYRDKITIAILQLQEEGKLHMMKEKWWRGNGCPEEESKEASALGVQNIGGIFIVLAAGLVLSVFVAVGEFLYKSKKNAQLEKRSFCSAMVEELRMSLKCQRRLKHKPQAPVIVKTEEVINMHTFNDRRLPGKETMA
Excerpt: (§4) Plasmids were obtained from the following individuals: Dr. Suzanne Zukin (Albert Einstein College of Medicine, Bronx, N.Y.), NR1100; Dr. Shigetada Nakanishi (Kyoto University Faculty of Medicine, Kyoto, Japan), NR2A; Dr. Stephen Heinemann (Salk Institute, San Diego, Calif.), GluR1 (flop), GluR3 (flop), and GluR6. Plasmids were linearized with BamH1 (NR1100), XhoI (NR2A, GluR1, GluR3) or XbaI (GluR6) prior to in vitro transcription with T3 (GluR1, GluR3, GluR6) or T7 (NR1100, NR2A) RNA polymerase using the Message Machine kit (Ambion, Austin, Tex.). […] RNA solutions (50-70 nl) were injected into oocytes for delivery of NR1100 (5 ng), NR1100:NR2A (1:10 ng), GluR1 (5 ng). GluR3 (5 ng), or GluR6 (20 ng). Oocytes were incubated in ND96 at 18-20° C. for 3-7 days prior to electrophysiological recording.
(§5) Steroid solutions were prepared as 70-100 mM frozen stocks in dimethyl sulfoxide (DMSO). The final DMSO concentration of all recording solutions was between 0.1% to 0.5% and was constant within an experiment.
(§6) Perfusion control and data acquisition were carried out using an automated oocyte electrophysiology workstation that was developed for the rapid collection of concentration-response data and real-time waveform analysis (Yaghoubi et al., Soc. Neurosci. Abstr. 20: 1109 (1995)). This system is implemented on a Macintosh IIci computer (Apple Computer, Cupertino, Calif.) equipped with MacA-DIOS II data acquisition and control hardware (GW Instruments, Somerville, Mass.). Drug application is controlled by the computer through a series of valves, using custom-written software based on the SuperScope II development environment, improving the efficiency and reproducibility of data collection. Experiments were carried out using an Axoclamp-2A voltage clamp amplifier (Axon Instruments, Foster City, Calif.) in two-electrode voltage clamp mode. Intracellular microelectrodes (1-3 MΩ) were filled with 3 M KCl. […] Membrane potential was clamped at −60 to −70 mV and stepped to −100 mV at the start of data acquisition unless otherwise stated. […] Current and voltage recordings were digitized at 100 Hz for analysis. GluR6 injected oocytes were treated for 10 min with 10 μg/ml concanavalin A to prevent fast desensitization.
(§7) Results are expressed as mean±S.E.M. Statistical comparisons were made using Student's t-test.

[5] = target: T1, NR1100+NR2A NMDA receptor; assay: NMDA-induced currents, Xenopus oocytes, Example 1; format: cell-based; conditions: for effect on NMDA induced current: NR1100+NR2A, sulfate
Excerpt: as §4, §5, §6, §7

GluR3 AMPA receptor = target: T3, GluR3 AMPA receptor (Rattus norvegicus, UniProt P19492); assay: Kainate-induced currents, Xenopus oocytes injected with GluR3 cRNA; format: cell-based
T3 construct: expressed in transfected cells; host or cells: Xenopus oocytes injected with GluR3 cRNA
T3 sequence (P19492 23-888): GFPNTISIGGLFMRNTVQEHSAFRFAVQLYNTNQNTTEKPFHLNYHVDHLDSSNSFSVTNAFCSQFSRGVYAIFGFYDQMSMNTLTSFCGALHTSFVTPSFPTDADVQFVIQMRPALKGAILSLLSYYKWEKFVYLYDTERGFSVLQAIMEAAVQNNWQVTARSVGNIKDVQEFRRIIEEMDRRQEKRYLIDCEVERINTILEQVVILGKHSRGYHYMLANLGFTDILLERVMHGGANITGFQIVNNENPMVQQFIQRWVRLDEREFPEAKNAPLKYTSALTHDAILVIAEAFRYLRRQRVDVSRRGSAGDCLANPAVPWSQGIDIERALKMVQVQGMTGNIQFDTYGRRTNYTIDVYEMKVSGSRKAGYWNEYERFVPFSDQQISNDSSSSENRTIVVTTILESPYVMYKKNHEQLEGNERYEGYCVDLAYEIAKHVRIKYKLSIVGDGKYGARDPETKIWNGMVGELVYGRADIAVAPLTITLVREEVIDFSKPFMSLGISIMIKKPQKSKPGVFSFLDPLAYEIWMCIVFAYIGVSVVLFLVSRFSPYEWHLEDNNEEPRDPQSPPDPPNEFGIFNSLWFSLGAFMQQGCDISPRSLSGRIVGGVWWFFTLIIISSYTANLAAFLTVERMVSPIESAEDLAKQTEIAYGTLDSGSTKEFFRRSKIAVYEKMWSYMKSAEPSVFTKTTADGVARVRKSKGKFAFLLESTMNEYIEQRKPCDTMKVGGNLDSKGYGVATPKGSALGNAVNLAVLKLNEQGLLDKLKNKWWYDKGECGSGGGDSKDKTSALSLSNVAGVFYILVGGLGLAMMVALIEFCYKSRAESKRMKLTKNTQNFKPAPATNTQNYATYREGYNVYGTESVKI
Excerpt: as §4, §5, §6, §7

GluR1 AMPA receptor = target: T4, GluR1 AMPA receptor (Rattus norvegicus, UniProt P19490); assay: Kainate-induced currents, Xenopus oocytes injected with GluR1 cRNA; format: cell-based
T4 construct: expressed in transfected cells; host or cells: Xenopus oocytes injected with GluR1 cRNA
T4 sequence (P19490 19-907): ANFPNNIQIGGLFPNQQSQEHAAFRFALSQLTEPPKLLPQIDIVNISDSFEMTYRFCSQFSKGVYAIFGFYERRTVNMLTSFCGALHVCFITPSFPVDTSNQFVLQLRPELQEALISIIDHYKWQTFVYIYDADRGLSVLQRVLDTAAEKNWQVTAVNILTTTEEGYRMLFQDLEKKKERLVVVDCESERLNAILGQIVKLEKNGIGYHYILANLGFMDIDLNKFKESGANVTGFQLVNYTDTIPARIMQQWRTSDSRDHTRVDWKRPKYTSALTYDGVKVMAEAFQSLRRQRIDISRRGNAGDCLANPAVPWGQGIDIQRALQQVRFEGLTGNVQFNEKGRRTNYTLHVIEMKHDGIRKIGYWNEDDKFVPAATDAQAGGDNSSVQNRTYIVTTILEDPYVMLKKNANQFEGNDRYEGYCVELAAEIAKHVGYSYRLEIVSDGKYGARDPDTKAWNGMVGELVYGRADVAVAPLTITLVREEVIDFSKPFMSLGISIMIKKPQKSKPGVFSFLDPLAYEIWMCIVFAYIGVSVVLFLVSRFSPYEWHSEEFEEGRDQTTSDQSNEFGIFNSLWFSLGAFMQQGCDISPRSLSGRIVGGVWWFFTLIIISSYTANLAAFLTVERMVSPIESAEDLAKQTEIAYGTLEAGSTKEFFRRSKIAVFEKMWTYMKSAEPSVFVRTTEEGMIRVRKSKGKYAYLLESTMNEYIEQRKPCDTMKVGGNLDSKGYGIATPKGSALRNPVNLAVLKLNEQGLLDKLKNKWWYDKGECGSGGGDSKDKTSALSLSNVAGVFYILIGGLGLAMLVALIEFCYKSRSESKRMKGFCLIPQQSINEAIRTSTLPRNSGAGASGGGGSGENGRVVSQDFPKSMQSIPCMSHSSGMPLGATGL
Excerpt: as §4, §5, §6, §7

[6] = system: NMDA receptor (chick spinal cord neurons); conditions: Park-Chung et al. 1997, cited from earlier work
NR1100 NMDA receptor = target: T5, NR1100 NMDA receptor (Rattus norvegicus, UniProt P35439); assay: NMDA-induced currents, Xenopus oocytes injected with NR1100 cRNA only, Example 1; format: cell-based
T5 construct: expressed in transfected cells; host or cells: Xenopus oocytes injected with NR1100 cRNA only
Excerpt: as §4, §5, §6, §7

With `CC(=O)[C@H]1CC[C@H]2[C@@H]3CC[C@@H]4C[C@H](OC(=O)CCCC(=O)O)CC[C@]4(C)[C@H]3CC[C@]12C` [3α5βHG, pregnanolone hemiglutarate] the “reduction of NMDA-induced rise in [Ca2+]i” value (shortened to “reduction”) ([1]; 5 μM NMDA) was “approximately 40%”, the “inhibition of INMDA” value [2] was “about equally effective in inhibiting INMDA” and the “inhibition of NMDA-induced neuronal death” value [3] was 38±6%.
For `CC(=O)[C@H]1CC[C@H]2[C@@H]3CC=C4C[C@@H](O)CC[C@]4(C)[C@H]3CC[C@]12C` [pregnenolone], the “potentiation of NMDA-induced Ca2+ accumulation” value [1] was “without effect”, the “precipitation at higher concentrations” value [4] was “higher concentrations tended to precipitate” and the “potentiation of INMDA” value [2] was 5±2%. For the same molecule, the “exacerbation of NMDA-induced neuronal death” value (from here on “exacerbation”) [3] was “ineffective”.
With `CC(=O)[C@H]1CC[C@H]2[C@@H]3CC=C4C[C@@H](OC(=O)CCCC(=O)O)CC[C@]4(C)[C@H]3CC[C@]12C` [PHG, pregnenolone hemiglutarate] the “potentiation of NMDA-induced Ca2+ accumulation” value [1] was 146±29%, the “potentiation of INMDA” value [2] was “more than doubling the response” and the “exacerbation” value [3] was 54±9%.
With `CC(=O)C1CCC2C3CC=C4C[C@@H](OC(=O)CCC(=O)O)CC[C@]4(C)C3CC[C@]12C` (stereo partly drawn) [PHS, pregnenolone hemisuccinate] the “Percentage change in kainate response” value (GluR6 kainate receptor) was −15 ± 2(3) %, the “inhibition of the response to kainate” value (GluR6 kainate receptor) was 15% and the “Percentage change in NMDA response” value ([5]; NR1100 + NR2A, steroid 100 μM, 100 μM NMDA, −100 mV) was “+118 ± 16(16) %”. For the same molecule, the “Percentage change in kainate response” value (GluR3 AMPA receptor) was −72 ± 3(3) %, the “potentiation of INMDA” value [2] was “more than doubling the response” and the “Percentage change in kainate response” value (GluR1 AMPA receptor) was −71 ± 1(4) %.
For `CC(=O)[C@H]1CC[C@H]2[C@@H]3CC[C@H]4C[C@@H](OS(=O)(=O)O)CC[C@]4(C)[C@H]3CC[C@]12C` [3β5αS, 3β-hydroxy-5α-pregnan-20-one sulfate], the “modulation of NMDA-induced current” value ([6]; sulfate) is given as “weakly potentiates”, the “effect on NMDA induced current” value [5] is given as 33±13% and the “exacerbation” value [3] is given as 40±7%.
For pregnanolone formate [3α5βF], the “reduction” value ([1]; 5 μM NMDA) was “no significant effect”, the “inhibition of INMDA” value [2] was “significantly inhibits INMDA” and the “inhibition of NMDA-induced neuronal death” value [3] was “do not exhibit significant neuroprotective activity”.
For `CC(=O)[C@H]1CC[C@H]2[C@@H]3CC[C@@H]4C[C@H](OC(=O)C(=O)O)CC[C@]4(C)[C@H]3CC[C@]12C` [3α5βHO, pregnanolone hemioxylate], the “reduction” value ([1]; 5 μM NMDA) was “approximately 40%”, the “inhibition of INMDA” value [2] was “about equally effective in inhibiting INMDA” and the “inhibition of NMDA-induced neuronal death” value [3] was 35±6%.
In the case of `CC(=O)[C@H]1CC[C@H]2[C@@H]3CC=C4C[C@@H](OC(=O)C(=O)O)CC[C@]4(C)[C@H]3CC[C@]12C` [PHO, pregnenolone hemioxylate], the “potentiation of NMDA-induced Ca2+ accumulation” value [1] is reported as 62±17%, the “potentiation of INMDA” value [2] is reported as “little activity; also recorded: does not enhance the NMDA-induced current” and the “exacerbation” value [3] is reported as 48±12%.
In the case of `CC(=O)[C@H]1CC[C@H]2[C@@H]3CC[C@H]4C[C@@H](OS(=O)(=O)O)CC[C@]4(C)[C@H]3CC[C@]12C` [3α5αS, 3α-hydroxy-5α-pregnan-20-one sulfate], the “modulation of NMDA-induced current” value ([6]; sulfate) is given as “weaker inhibitor”, the “effect on NMDA induced current” value [5] is given as 8±8% and the “inhibition of NMDA-induced neuronal death” value [3] is given as 47±12%.
In the case of `CC(=O)[C@H]1CC[C@H]2[C@@H]3CC[C@@H]4C[C@H](O)CC[C@]4(C)[C@H]3CC[C@]12C` [3α5β, pregnanolone], the “reduction” value ([1]; 5 μM NMDA) is reported as “no significant effect”, the “precipitation at higher concentrations” value [4] is reported as “higher concentrations tended to precipitate” and the “inhibition of INMDA” value [2] is reported as “inactive”. For the same molecule, the “inhibition of NMDA-induced neuronal death” value [3] was “do not exhibit significant neuroprotective activity”.
In the case of `CC(=O)[C@H]1CC[C@H]2[C@@H]3CC=C4C[C@@H](OC=O)CC[C@]4(C)[C@H]3CC[C@]12C` [PF, pregnenolone formate], the “potentiation of NMDA-induced Ca2+ accumulation” value ([1]; 5 μM NMDA, steroid 100 μM (pregnenolone 20 μM)) is reported as “without effect”, the “potentiation of INMDA” value [2] is reported as “little activity” and the “exacerbation” value [3] is reported as “ineffective”.
In the case of `CC(=O)[C@H]1CC[C@H]2[C@@H]3CC[C@@H]4C[C@@H](OS(=O)(=O)O)CC[C@]4(C)[C@H]3CC[C@]12C` [3β5βS, epipregnanolone sulfate], the “modulation of NMDA-induced current” value [6] is given as “strong inhibitors”, the EC50 [5] is given as 79 µM and the EC50 (NR1100 NMDA receptor) is given as 144 µM. The “inhibition of NMDA-induced neuronal death” value [3] was 86±3%.
